Results reported in patent US12509444B2, “Compounds and methods for CD73 modulation and indications therefor” (Plexxikon Inc., priority 2019, dated 2025).

Columns and labels:
[1] = target: T1, Human CD73 (amino acid residues 27-549) (Homo sapiens, UniProt P21589); assay: CD73 enzymatic assay (luciferase-based indirect assay, CellTiter-Glo); type: biochemical; conditions: 0.4 nM CD73, 150 μM AMP, 1 hour at room temperature
T1 construct: Human CD73 (amino acid residues 27-549); His tag (N); made in house; host or cells: E. coli
T1 sequence (P21589 27-549): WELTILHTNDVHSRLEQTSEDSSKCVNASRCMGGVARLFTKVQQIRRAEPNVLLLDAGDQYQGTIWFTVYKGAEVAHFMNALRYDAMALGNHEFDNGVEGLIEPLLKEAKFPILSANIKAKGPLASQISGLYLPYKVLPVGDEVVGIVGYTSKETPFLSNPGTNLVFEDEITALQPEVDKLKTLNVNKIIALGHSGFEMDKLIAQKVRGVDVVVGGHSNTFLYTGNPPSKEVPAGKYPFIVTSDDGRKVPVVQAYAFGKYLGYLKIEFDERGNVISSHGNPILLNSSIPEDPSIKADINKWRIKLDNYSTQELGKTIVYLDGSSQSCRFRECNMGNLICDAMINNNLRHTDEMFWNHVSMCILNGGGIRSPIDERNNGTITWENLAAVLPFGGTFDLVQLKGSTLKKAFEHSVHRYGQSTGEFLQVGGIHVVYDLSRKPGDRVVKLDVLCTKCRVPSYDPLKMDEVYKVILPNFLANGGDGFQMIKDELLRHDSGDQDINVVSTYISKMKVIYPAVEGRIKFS
In short: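 Residual AMP inhibits luciferase, so luminescence reports CD73 turnover; read with CellTiter-Glo 2.0 plus 1 μM final ATP, 30 min. Reaction used 0.4 nM N-His CD73 (27-549, E. coli), 150 μM AMP, HEPES pH 7.4 with Tween 20, 1 h at room temperature. IC50 fitted by nonlinear regression.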

human CD73 = target: T2, human CD73 (Homo sapiens, UniProt P21589); assay: Inhibitor activity against CD73 in cell based assay (CD73 expressing CHO-K1 cells); conditions: CHO-K1 cells expressing human CD73, 150 μM AMP, 4 hours of incubation; read-out: CHO-K1 CELL VARIANT: CD73 IC50
T2 construct: expressed in transfected cells
T2 sequence (P21589 27-549): T1 sequence (P21589 27-549)
In short: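 Residual supernatant AMP was quantified via CellTiter-Glo luminescence (1 μM ATP added, 30 min, room temperature) after a 4 h exposure of human CD73-expressing CHO-K1 cells to 150 μM AMP plus compound, top final 10 μM, 8 points. IC50 came from nonlinear regression of percent inhibition.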

IC50 [1] [µM]	IC50 (human CD73) [µM]	SMILES
0.001 to 10	0.001 to 10	C[C@H](O)C(=O)N1CCC(NC(=O)O[C@@H]2CCN(c3cn[nH]c(=O)c3Cl)C2)CC1 [P-0399, (R)-1-(5-chloro-6-oxo-1,6-dihydropyridazin-4-yl)pyrrolidin-3-yl (1-((S)-2-hydroxypropanoyl)piperidin-4-yl)carbamate]
0.001 to 10	0.001 to 10	C[C@@H](O)C(=O)N1CCC(NC(=O)O[C@@H]2CCN(c3cn[nH]c(=O)c3Cl)C2)CC1 [P-0400, (R)-1-(5-chloro-6-oxo-1,6-dihydropyridazin-4-yl)pyrrolidin-3-yl (1-((R)-2-hydroxypropanoyl)piperidin-4-yl)carbamate]
0.001 to 10	0.001 to 10	O=C(NC1CCN(C(=O)C2CCCO2)CC1)O[C@@H]1CCN(c2cn[nH]c(=O)c2Cl)C1 (stereo partly drawn) [P-0401, (R)-1-(5-chloro-6-oxo-1,6-dihydropyridazin-4-yl)pyrrolidin-3-yl (1-(tetrahydrofuran-2-carbonyl)piperidin-4-yl)carbamate]
0.001 to 10	0.001 to 10	O=C(NC1CCN(C(=O)c2ccccc2F)CC1)O[C@@H]1CCN(c2cn[nH]c(=O)c2Cl)C1 [P-0402, (R)-1-(5-chloro-6-oxo-1,6-dihydropyridazin-4-yl)pyrrolidin-3-yl (1-(2-fluorobenzoyl)piperidin-4-yl)carbamate]
0.001 to 10	0.001 to 10	O=C(NC1CCN(C(=O)c2ccc(F)cc2)CC1)O[C@@H]1CCN(c2cn[nH]c(=O)c2Cl)C1 [P-0404, (R)-1-(5-chloro-6-oxo-1,6-dihydropyridazin-4-yl)pyrrolidin-3-yl (1-(4-fluorobenzoyl)piperidin-4-yl)carbamate]
0.001 to 10	0.001 to 10	CC1(NC(=O)O[C@@H]2CCN(c3cn[nH]c(=O)c3Cl)C2)CCCC1 [P-0405, (R)-1-(5-chloro-6-oxo-1,6-dihydropyridazin-4-yl)pyrrolidin-3-yl (1-methylcyclopentyl)carbamate]
0.001 to 10	0.001 to 10	O=C(NC1(C2CCCC2)CC1)O[C@@H]1CCN(c2cn[nH]c(=O)c2Cl)C1 [P-0406, (R)-1-(5-chloro-6-oxo-1,6-dihydropyridazin-4-yl)pyrrolidin-3-yl (1-cyclopentylcyclopropyl) carbamate]
0.001 to 10	0.001 to 10	O=C1CC2CCC(C1)C2NC(=O)O[C@@H]1CCN(c2cn[nH]c(=O)c2Cl)C1 (stereo partly drawn) [P-0407, (R)-1-(5-chloro-6-oxo-1,6-dihydropyridazin-4-yl)pyrrolidin-3-yl (3-oxobicyclo[3.2.1]octan-8-yl)carbamate]
0.001 to 10	0.001 to 10	CCC1(NC(=O)O[C@@H]2CCN(c3cn[nH]c(=O)c3Cl)C2)CCCC1 [P-0408, (R)-1-(5-chloro-6-oxo-1,6-dihydropyridazin-4-yl)pyrrolidin-3-yl (1-ethylcyclopentyl)carbamate]
0.001 to 10	0.001 to 10	O=C(NC1(C2CCCCC2)CC1)O[C@@H]1CCN(c2cn[nH]c(=O)c2Cl)C1 [P-0410, (R)-1-(5-chloro-6-oxo-1,6-dihydropyridazin-4-yl)pyrrolidin-3-yl (1-cyclohexylcyclopropyl) carbamate]
0.001 to 10	0.001 to 10	N#CCC1(NC(=O)O[C@@H]2CCN(c3cn[nH]c(=O)c3Cl)C2)CCCC1 [P-0411, (R)-1-(5-chloro-6-oxo-1,6-dihydropyridazin-4-yl)pyrrolidin-3-yl (1-(cyanomethyl)cyclopentyl) carbamate]
0.001 to 10	0.001 to 10	CC1(C)CCCCC1NC(=O)O[C@@H]1CCN(c2cn[nH]c(=O)c2Cl)C1 (stereo partly drawn) [P-0413, (R)-1-(5-chloro-6-oxo-1,6-dihydropyridazin-4-yl)pyrrolidin-3-yl (2,2-dimethylcyclohexyl)carbamate]
0.001 to 10	0.001 to 10	O=C(NC1CCN(C(=O)c2cccnc2)CC1)O[C@@H]1CCN(c2cn[nH]c(=O)c2Cl)C1 [P-0416, (R)-1-(5-chloro-6-oxo-1,6-dihydropyridazin-4-yl)pyrrolidin-3-yl (1-nicotinoylpiperidin-4-yl)carbamate]
0.001 to 10	0.001 to 10	O=C(NC1CCN(C(=O)c2cccnc2Cl)CC1)O[C@@H]1CCN(c2cn[nH]c(=O)c2Cl)C1 [P-0417, (R)-1-(5-chloro-6-oxo-1,6-dihydropyridazin-4-yl)pyrrolidin-3-yl (1-(2-chloronicotinoyl)piperidin-4-yl)carbamate]
0.001 to 10	0.001 to 10	O=C(NC1CCN(C(=O)c2ccc(Cl)nc2)CC1)O[C@@H]1CCN(c2cn[nH]c(=O)c2Cl)C1 [P-0418, (R)-1-(5-chloro-6-oxo-1,6-dihydropyridazin-4-yl)pyrrolidin-3-yl (1-(6-chloronicotinoyl)piperidin-4-yl)carbamate]

The next lines start with the compound.

SMILES	IC50 [1] [µM]	IC50 (human CD73) [µM]
O=C(NC1CCCC1)O[C@@H]1CCN(c2cnn(CC(O)CO)c(=O)c2Cl)C1 (stereo partly drawn) [P-0397, (3R)-1-(5-chloro-1-(2,3-dihydroxypropyl)-6-oxo-1,6-dihydropyridazin-4-yl)pyrrolidin-3-yl cyclopentylcarbamate]	0.001 to 10	0.001 to 10
O=C(NC1CC1)N[C@H]1CC[C@@H](NC(=O)O[C@@H]2CCN(c3cnn(CCO)c(=O)c3Cl)C2)CC1 [P-0398, (R)-1-(5-chloro-1-(2-hydroxyethyl)-6-oxo-1,6-dihydropyridazin-4-yl)pyrrolidin-3-yl ((1s,4S)-4-(3-cyclopropylureido)cyclohexyl) carbamate]	0.001 to 10	0.001 to 10
O=C(NC1CCN(C(=O)c2ccccc2C(F)(F)F)CC1)O[C@@H]1CCN(c2cn[nH]c(=O)c2Cl)C1 [P-0403, (R)-1-(5-chloro-6-oxo-1,6-dihydropyridazin-4-yl)pyrrolidin-3-yl (1-(2-(trifluoromethyl)benzoyl)piperidin-4-yl)carbamate]	0.001 to 10	0.001 to 10
CS(=O)(=O)N[C@H]1CC[C@H](NC(=O)O[C@@H]2CCN(c3cnn(CC(O)CO)c(=O)c3Cl)C2)CC1 (stereo partly drawn) [P-0409, (3R)-1-(5-chloro-1-(2,3-dihydroxypropyl)-6-oxo-1,6-dihydropyridazin-4-yl)pyrrolidin-3-yl ((1r,4R)-4-(methylsulfonamido)cyclohexyl)carbamate]	0.001 to 10	0.001 to 10
Cc1csc(C2(NC(=O)O[C@@H]3CCN(c4cn[nH]c(=O)c4Cl)C3)CCCC2)n1 [P-0412, (R)-1-(5-chloro-6-oxo-1,6-dihydropyridazin-4-yl)pyrrolidin-3-yl (1-(4-methylthiazol-2-yl)cyclopentyl)carbamate]	0.001 to 10	0.001 to 10
NCCn1ncc(N2CC[C@@H](OC(=O)NC3CCC(F)(F)CC3)C2)c(Cl)c1=O [P-0414, (R)-1-(1-(2-aminoethyl)-5-chloro-6-oxo-1,6-dihydropyridazin-4-yl)pyrrolidin-3-yl (4,4-difluorocyclohexyl)carbamate]	0.001 to 10	0.001 to 10
NCCn1ncc(N2CC[C@@H](OC(=O)NC3CCCC3)C2)c(Cl)c1=O [P-0415, (R)-1-(1-(2-aminoethyl)-5-chloro-6-oxo-1,6-dihydropyridazin-4-yl)pyrrolidin-3-yl cyclopentylcarbamate]	0.001 to 10	0.001 to 10
O=C(NC1CCN(C(=O)c2ccc(C(F)(F)F)nc2)CC1)O[C@@H]1CCN(c2cn[nH]c(=O)c2Cl)C1 [P-0419, (R)-1-(5-chloro-6-oxo-1,6-dihydropyridazin-4-yl)pyrrolidin-3-yl (1-(6-(trifluoromethyl)nicotinoyl)piperidin-4-yl)carbamate]	0.001 to 10	0.001 to 10
O=C(NC1CCN(C(=O)Cc2ccccc2Br)CC1)O[C@@H]1CCN(c2cn[nH]c(=O)c2Cl)C1 [P-0420, (R)-1-(5-chloro-6-oxo-1,6-dihydropyridazin-4-yl)pyrrolidin-3-yl (1-(2-(2-bromophenyl)acetyl)piperidin-4-yl)carbamate]	0.001 to 10	0.001 to 10
O=C(NC1CCN(C(=O)Cc2ccccc2Cl)CC1)O[C@@H]1CCN(c2cn[nH]c(=O)c2Cl)C1 [P-0421, (R)-1-(5-chloro-6-oxo-1,6-dihydropyridazin-4-yl)pyrrolidin-3-yl (1-(2-(2-chlorophenyl)acetyl)piperidin-4-yl)carbamate]	0.001 to 10	0.001 to 10
O=C(NC1CCN(C(=O)Cc2c(F)cccc2Cl)CC1)O[C@@H]1CCN(c2cn[nH]c(=O)c2Cl)C1 [P-0422, (R)-1-(5-chloro-6-oxo-1,6-dihydropyridazin-4-yl)pyrrolidin-3-yl (1-(2-(2-chloro-6-fluorophenyl)acetyl)piperidin-4-yl)carbamate]	0.001 to 10	0.001 to 10
